Data from patent US8853424B2 (Japan Science and Technology Agency, priority 2008, dated 2014).
Where two headings read alike, the source gives them in different places.

Assays:
[1] = system: Truncated N-terminal huntington 150 Q-EGFP-Neuron 2a cells; assay: Measurement of x-Fold (polyglutamine aggregation inhibitory activity); type: cell-based
Protocol: In the present invention, the polyglutamine aggregation inhibitory activity (x-Fold) can be measured, for example, by the method described in the Example.
The number of the aggregated cells, and the total number of cells were counted by Array Scan V T1 (manufactured by Cellomics, Pittuburg, USA), and the ratio of the aggregated cells to the total number of cells was determined (x-Fold). […]

transglutaminase (TGase) = assay: Measurement of TG (TGase inhibitory activity, monodansyl cadaverine / N,N-dimethylcasein fluorescence, FDSS 3000); type: biochemical
Summary of the method: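 Compound (1 μL of 10 mM stock) added to 0.1 mL reaction: 100 mM HEPES-NaOH pH 7.5, 1 mM CaCl2, 20 μM monodansyl cadaverine, 0.05 mg/mL N,N-dimethylcasein, 5 μg/mL TGase. Rate of fluorescence change at 340 nm measured; DMSO control set to 100; TG50 is the concentration halving activity.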

[2] = system: SOC (store operated calcium channel); assay: Measurement of SOC IC50 (thapsigargin store depletion, calcium re-addition, CHO cells); type: cell-based; settings: read-out: SOC IC50
Protocol: The SOC (store operated calcium channel)-suppressive action can be measured by the method described in the Example and using, for example, FDSS 3000.
CHO cell culture medium was replaced with a BSS solution which is an extracellular fluidfree of calcium, the compound of the present invention was added 1 min later, and 1 μM thapsigargin was allowed to act thereon 2 min later to deplete intracellular calcium store. […]

[3] = polyglutamine aggregation inhibitory activity, Table 1
[4] = ratio of aggregated cells to total number of cells, compound 20 μM, 20 hr, almost 1 without compound, smaller = stronger inhibition
[5] = TGase activity with compound (10 mM, 1 μL in 0.1 ml enzyme reaction solution), DMSO control taken as 100
[6] = TGase inhibitory activity value, Table 1
[7] = Cricetulus griseus, CHO, CHO cells, 1 μM thapsigargin, 2 mM calcium chloride
[8] = Cricetulus griseus, CHO, Table 1
[9] = CHO cells, 1 μM thapsigargin, 2 mM calcium chloride

| Compound | x-Fold [1, 3] | x-Fold [1, 4] | TGase activity remaining (% of DMSO control = 100) (transglutaminase (TGase); [5]) | TGase activity remaining (% of DMSO control = 100) (transglutaminase (TGase); [6]) | IC50 [2, 7] | IC50 [2, 8] | further results |
| --- | --- | --- | --- | --- | --- | --- | --- |
| CCC(C)B(OCCN)c1ccccc1 (stereo not drawn) [Example 110, aminoethyl secondary-butyl phenylborinate] | 1.02 | 1.02 | 115 | 115 | > 10000 nM | > 10000 nM |  |
| OCCCCB(O)c1ccccc1 [Example 114, 4-hydroxybutylphenylborinic acid] | 0.99 | 0.99 | 120 | 120 | 2000 nM | 2000 nM |  |
| NCCOB(c1ccccc1)c1ccc(B(OCCN)c2ccccc2)cc1 [Example 118, 1,4-bis(phenyl-2-aminoethoxyboryl)benzene] | 0.97 | 0.97 | 93 | 93 | 2000 nM | 2000 nM |  |
| OB(c1ccccc1)c1cccc(B(O)c2ccccc2)c1 [Example 119, 1,3-bis(phenylhydroxyboryl)benzene] |  | 0.84 | 101 |  | > 20000 nM |  |  |
| N=C(N)NCCCC(N)C(=O)OB(c1ccccc1)c1ccccc1 (stereo not drawn) [Example 122, diphenyl(argininate-O,N)borane] | 0.98 | 0.98 | 93 | 93 | 7000 nM | 7000 nM |  |
| OB(c1ccccc1)c1ccc(COCc2ccc(B(O)c3ccccc3)cc2)cc1 [Example 137, bis((4,4′-phenylhydroxyboryl)benzyl)ether] |  | 0.99 | 14 |  |  |  | IC50 [2, 9]: 300 nM |
| OB(c1ccccc1)c1cccc(B(O)c2ccccc2)c1 [Example 147, 1,3-bis(phenylhydroxyboryl)benzene] |  | 0.87 | 101 |  |  |  | IC50 [2, 9]: 20000 nM |
| NC(=O)CC(N)C(=O)OB(c1ccc(COCc2ccc(B(OC(=O)C(N)CC(N)=O)c3ccc(C(F)(F)F)cc3)cc2)cc1)c1ccc(C(F)(F)F)cc1 (stereo not drawn) [Example 185, bis(4,4′-(p-trifluoromethylphenyl-asparagineboryl)benzyl)ether] |  | 0.94 | 130 |  |  |  | IC50 [2, 9]: > 20000 nM |
| CCCCNCCOB(c1ccc(C)c(Cl)c1)c1ccc(C)c(Cl)c1 [Example 210, di(3-chloro-4-methylphenyl)butylaminoethyl borinate] | 0.98 | 0.98 | 27 | 27 | 2000 nM | 2000 nM |  |
| Cc1ccc(B(OCCNCc2ccccc2)c2ccc(C)c(Cl)c2)cc1Cl [Example 211, di(3-chloro-4-methylphenyl)benzylaminoethyl borinate] | 0.99 | 0.99 | 86 | 86 | 1000 nM | 1000 nM |  |
| Cc1ccc(B(OCC(N)c2ccccc2)c2ccc(C)c(Cl)c2)cc1Cl (stereo not drawn) [Example 214] | 0.90 | 0.90 | −7 | −7 | 2000 nM | 2000 nM |  |
| Cc1ccc(B(Oc2ccccc2N)c2ccc(C)c(Cl)c2)cc1Cl [Example 220, di(3-chloro-4-methylphenyl) 2-aminophenylborinate] | 0.50 | 0.50 | 26 | 26 | 500 nM | 500 nM |  |
| Cc1ccc(B(OC(c2ccccc2)C(N)c2ccccc2)c2ccc(C)c(Cl)c2)cc1Cl (stereo not drawn) [Example 225] | 1.03 | 1.03 | 109 | 109 | 500 nM | 500 nM |  |
| CCC(N)COB(c1ccc(C)c(Cl)c1)c1ccc(C)c(Cl)c1 (stereo not drawn) [Example 229, di(3-chloro-4-methylphenyl) 2-aminobutylborinate] | 1.09 | 1.09 | 40 | 40 | 500 nM | 500 nM |  |
| NCCOB(c1ccc(Cl)c(F)c1)c1ccc(Cl)c(F)c1 [Example 234, di(4-chloro-3-fluoro-phenyl) 2-aminoethylborinate] |  | 1.07 | 98 |  | 500 nM | 500 nM | x-Fold ([1]; polyglutamine aggregation inhibitory activity, Table 1, listed as 4143): 1.07; TGase activity remaining (% of DMSO control = 100) (transglutaminase (TGase); TGase inhibitory activity value, Table 1, listed as 4143): 98 |
| Cc1ccc(Cl)cc1B(OCCN)c1cc(Cl)ccc1C [Example 244, di(5-chloro-2-methylphenyl) 2-aminoethylborinate] |  | 0.76 | 74 |  | 1000 nM |  |  |
| Cc1ccc(B(OCC2CCCCN2)c2ccc(C)c(Cl)c2)cc1Cl (stereo not drawn) [Example 247, di(3-chloro-4-methylphenyl) 2-piperidinomethylborinate] |  | 0.91 | 99 |  | 700 nM |  |  |
| OB(c1ccccc1)c1ccc(B(O)c2ccccc2)cc1 [Example 252, 1,4-bis(phenylhydroxyboryl)benzene] | 0.95 | 0.95 | 93 | 93 | 500 nM | 500 nM |  |
| O=C1O[B-](c2ccccc2)(c2ccccc2)[NH2+]C1CO (stereo not drawn) [Example 255, diphenyl(serinate-O,N)borane] | 0.94 | 0.94 | 113 | 113 | 500 nM | 500 nM |  |
| O=C1O[B-](c2ccccc2)(c2ccccc2)[NH2+]C1Cc1ccccc1 (stereo not drawn) [Example 259, diphenyl(phenylalaninate-O,N)borane] | 0.97 | 0.97 | 67 | 67 | 2500 nM | 2500 nM |  |
| NCCC(N)C(=O)OB(c1ccccc1)c1ccccc1 (stereo not drawn) [Example 263, diphenyl(2,4-diaminolactonate-O,N)borane] |  | 0.89 | 146 |  | 3000 nM | 3000 nM | x-Fold ([1]; polyglutamine aggregation inhibitory activity, Table 1, listed as 2045): 0.89; TGase activity remaining (% of DMSO control = 100) (transglutaminase (TGase); TGase inhibitory activity value, Table 1, listed as 2045): 146 |
| NC(CS)C(=O)OB(c1ccccc1)c1ccccc1 (stereo not drawn) [Example 266, diphenyl(cysteinate-O,N)borane] | 0.87 | 0.87 | 84 | 84 | 3000 nM | 3000 nM |  |
| O=C(OB(c1ccccc1)c1ccccc1)C1CC(O)CN1 (stereo not drawn) [Example 268, diphenyl(hydroxyprolinate-O,N)borane] | 0.96 | 0.96 | 103 | 103 | 5000 nM | 5000 nM |  |
| NC(=O)CCC(N)C(=O)OB(c1ccccc1)c1ccccc1 (stereo not drawn) [Example 269, diphenyl(glutaminate-O,N)borane] |  | 1.01 | 95 |  | 3000 nM | 3000 nM | x-Fold ([1]; polyglutamine aggregation inhibitory activity, Table 1, listed as 879): 1.01; TGase activity remaining (% of DMSO control = 100) (transglutaminase (TGase); TGase inhibitory activity value, Table 1, listed as 879): 95 |
| NC(=O)CC(N)C(=O)OB(c1ccccc1)c1ccccc1 (stereo not drawn) [Example 270, diphenyl(asparaginate-O,N)borane] |  | 0.54 | 111 |  | 700 nM | 700 nM | x-Fold ([1]; polyglutamine aggregation inhibitory activity, Table 1, listed as 855): 0.54; TGase activity remaining (% of DMSO control = 100) (transglutaminase (TGase); TGase inhibitory activity value, Table 1, listed as 855): 111 |
| NCCCCC(N)C(=O)OB(c1ccccc1)c1ccccc1 (stereo not drawn) [Example 271, diphenyl(lysinate-O,N)borane] | 1.07 | 1.07 | 109 | 109 | 500 nM | 500 nM |  |
| NCC(N)C(=O)OB(c1ccccc1)c1ccccc1 (stereo not drawn) [Example 272, diphenyl(2,3-diaminopropionate-O,N)borane] |  | 0.09 | 83 |  | 300 nM | 300 nM | x-Fold ([1]; polyglutamine aggregation inhibitory activity, Table 1, listed as 2043): 0.09; TGase activity remaining (% of DMSO control = 100) (transglutaminase (TGase); TGase inhibitory activity value, Table 1, listed as 2043): 83 |
